Source: patent US6589952B2, “Imidazo[1,2-a]pyrazines for the treatment of neurological disorders” (Bristol-Myers Squibb Pharma Company, priority 2000, dated 2003)

SMILES: CCCC(O)c1c(CC)nc2c(-c3ccc(Cl)cc3Cl)nccn12 (stereo not shown) [Example 7, 8-(2,4-dichlorophenyl)-2-ethyl-3-(1-hydroxybutyl)imidazo[1,2-a]pyrazine]
- melting point: 159 to 160 °C
